Measured values published in patent US20220220128A1, “HETEROCYCLIC COMPOUNDS AS KINASE INHIBITORS, COMPOSITIONS COMPRISING THE HETEROCYCLIC COMPOUND, AND METHODS OF USE THEREOF” (JS Innopharm (Shanghai) Ltd, priority 2019, published 2022).

Legend:
[1] = target: T1, human KDR kinase (Homo sapiens, UniProt P35968); assay: KDR Kinase Assay (LanthaScreen TR-FRET enzymatic assay); assay type: biochemical; conditions: 1.2 nM KDR, 92 μM ATP
T1 construct: purchased Carna 08-191
Outline: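 TR-FRET enzymatic format: after 15-min room-temperature compound pretreatment, 1.2 nM human KDR phosphorylated 3 μM FAM-P22 with 92 μM ATP (HEPES pH 7.5, 28° C., one hour). Reactions were quenched with EDTA buffer. IC50 came from nonlinear sigmoid fits of percent-of-vehicle signal ratios.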

[2] = target: T2, human RET kinase (Homo sapiens, UniProt P07949); assay: RET Kinase Assay (LanthaScreen TR-FRET enzymatic assay); assay type: biochemical; conditions: 7 nM RET, 23 μM ATP
T2 construct: purchased Carna 08-159
T2 sequence (P07949 29-1114): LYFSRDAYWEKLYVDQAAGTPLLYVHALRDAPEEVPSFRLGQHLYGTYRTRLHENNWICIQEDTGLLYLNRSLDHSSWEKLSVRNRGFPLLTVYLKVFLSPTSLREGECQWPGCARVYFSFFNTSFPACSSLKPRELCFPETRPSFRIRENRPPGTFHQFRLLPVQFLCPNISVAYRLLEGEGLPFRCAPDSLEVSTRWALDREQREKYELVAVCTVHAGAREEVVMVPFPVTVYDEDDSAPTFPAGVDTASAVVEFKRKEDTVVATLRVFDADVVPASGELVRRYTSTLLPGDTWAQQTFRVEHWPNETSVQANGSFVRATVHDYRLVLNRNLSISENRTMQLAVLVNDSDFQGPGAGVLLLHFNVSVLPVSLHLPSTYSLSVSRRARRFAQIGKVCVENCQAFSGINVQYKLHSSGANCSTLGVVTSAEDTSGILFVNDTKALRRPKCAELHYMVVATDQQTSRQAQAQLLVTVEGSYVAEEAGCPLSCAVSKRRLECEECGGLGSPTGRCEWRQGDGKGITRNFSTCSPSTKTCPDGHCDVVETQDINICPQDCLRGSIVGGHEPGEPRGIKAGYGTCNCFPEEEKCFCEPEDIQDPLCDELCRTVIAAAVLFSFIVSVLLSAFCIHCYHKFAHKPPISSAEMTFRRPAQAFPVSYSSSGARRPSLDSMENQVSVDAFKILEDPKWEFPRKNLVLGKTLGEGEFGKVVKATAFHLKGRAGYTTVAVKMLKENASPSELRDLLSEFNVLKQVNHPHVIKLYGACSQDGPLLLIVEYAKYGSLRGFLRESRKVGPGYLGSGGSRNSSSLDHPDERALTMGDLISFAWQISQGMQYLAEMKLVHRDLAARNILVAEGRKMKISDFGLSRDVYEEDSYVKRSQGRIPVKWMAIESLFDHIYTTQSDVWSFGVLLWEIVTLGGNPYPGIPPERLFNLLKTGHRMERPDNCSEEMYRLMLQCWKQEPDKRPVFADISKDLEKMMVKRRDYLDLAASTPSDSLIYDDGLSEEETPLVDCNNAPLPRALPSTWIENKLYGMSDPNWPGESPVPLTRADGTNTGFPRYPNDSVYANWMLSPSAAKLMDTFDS
Outline: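 TR-FRET enzymatic read-out using 23 μM ATP, 3 μM FAM-P2 substrate and 7 nM human RET, after 15-min compound pretreatment at room temperature and a 1 h reaction at 28° C in HEPES pH 7.5 buffer. Percent of DMSO control fitted to nonlinear sigmoid curves for IC50.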

[3] = system: TT cells; assay: TT Cell Proliferation Assay (WST-8, 8 days); assay type: cell-based; conditions: Homo sapiens, TT, 192 h, growth inhibition in TT cells, read-out: TT Cellular Activity
Outline: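 IC50 was derived from absorbance at 450 nm after 5 h with WST-8, following 8 days' incubation at 37 °C. Final compound levels spanned 0.0005–5 μM in 0.5% DMSO. TT cells were seeded at 6,000 per well in 10% FBS RPMI-1640 and left to attach for 24 h beforehand.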

T1 sequence (P35968 20-1356): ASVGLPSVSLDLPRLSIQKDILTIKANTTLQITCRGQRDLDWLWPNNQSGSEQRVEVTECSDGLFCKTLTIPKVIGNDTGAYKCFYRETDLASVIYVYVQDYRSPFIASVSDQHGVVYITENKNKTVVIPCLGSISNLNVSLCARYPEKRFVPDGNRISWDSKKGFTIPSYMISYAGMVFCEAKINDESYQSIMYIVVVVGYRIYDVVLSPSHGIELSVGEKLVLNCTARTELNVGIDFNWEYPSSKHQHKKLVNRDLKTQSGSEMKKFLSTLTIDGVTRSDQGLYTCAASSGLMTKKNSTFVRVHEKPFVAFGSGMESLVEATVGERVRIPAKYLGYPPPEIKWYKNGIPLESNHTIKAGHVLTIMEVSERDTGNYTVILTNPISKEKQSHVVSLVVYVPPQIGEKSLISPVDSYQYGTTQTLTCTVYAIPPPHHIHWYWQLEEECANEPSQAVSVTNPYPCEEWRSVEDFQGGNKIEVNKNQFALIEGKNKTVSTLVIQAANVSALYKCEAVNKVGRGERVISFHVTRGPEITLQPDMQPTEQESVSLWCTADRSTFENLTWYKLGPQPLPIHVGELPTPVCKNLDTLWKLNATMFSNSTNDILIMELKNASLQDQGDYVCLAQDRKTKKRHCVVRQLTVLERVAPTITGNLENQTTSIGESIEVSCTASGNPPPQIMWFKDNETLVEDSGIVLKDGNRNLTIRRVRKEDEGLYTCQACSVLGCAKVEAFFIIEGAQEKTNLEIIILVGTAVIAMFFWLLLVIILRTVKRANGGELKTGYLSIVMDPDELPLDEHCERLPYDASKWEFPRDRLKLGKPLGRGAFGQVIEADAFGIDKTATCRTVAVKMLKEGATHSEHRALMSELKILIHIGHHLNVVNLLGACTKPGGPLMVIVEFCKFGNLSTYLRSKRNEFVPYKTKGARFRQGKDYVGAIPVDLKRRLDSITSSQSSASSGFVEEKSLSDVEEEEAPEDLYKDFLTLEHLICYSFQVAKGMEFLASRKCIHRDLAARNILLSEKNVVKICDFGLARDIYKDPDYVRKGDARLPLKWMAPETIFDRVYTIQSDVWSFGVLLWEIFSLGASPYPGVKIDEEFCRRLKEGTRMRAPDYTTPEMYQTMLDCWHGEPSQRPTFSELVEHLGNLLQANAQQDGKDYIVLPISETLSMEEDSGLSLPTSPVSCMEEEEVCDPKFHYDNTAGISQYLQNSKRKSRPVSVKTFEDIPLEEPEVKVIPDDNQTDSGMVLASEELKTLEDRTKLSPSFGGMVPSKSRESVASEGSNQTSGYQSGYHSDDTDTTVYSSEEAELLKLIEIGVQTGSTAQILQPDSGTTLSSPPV

Row | Structure (SMILES) | IC50 [1] | IC50 [2] | IC50 [3]
1 | CC(C)(O)COc1cc(-c2ccc(N3C[C@@H]4C[C@@](C)(NC(=O)c5ncccc5C#N)C[C@@H]4C3)nc2)c2c(C#N)cnn2c1 [Example 127, 3-cyano-N-((3aR,5s,6aS)-2-(5-(3-cyano-6-(2-hydroxy-2-methylpropoxy)pyrazolo[1,5-a]pyridin-4-yl)pyridin-2-yl)-5-methyloctahydrocyclopenta[c]pyrrol-5-yl)picolinamide] | > 100 nM | ≤ 10 nM | 10 to 50 nM
2 | Cn1cc(-c2cc(-c3ccc(N4C[C@@H]5[C@@H](CNC(=O)C(O)c6ccccc6)[C@@H]5C4)nc3)c3c(C#N)cnn3c2)cn1 (stereo partly drawn) [Example 76, N-(((1R,5S,6s)-3-(5-(3-cyano-6-(1-methyl-1H-pyrazol-4-yl)pyrazolo[1,5-a]pyridin-4-yl)pyridin-2-yl)-3-azabicyclo[3.1.0]hexan-6-yl)methyl)-2-hydroxy-2-phenylacetamide] | ≤ 10 nM | ≤ 10 nM | 10 to 50 nM
3 | Cn1cc(-c2cc(-c3ccc(N4C[C@@H]5[C@@H](CNC(=O)OC(C)(C)C)[C@@H]5C4)nc3)c3c(C#N)cnn3c2)cn1 [Example 71, tert-butyl (((1R,5S,6s)-3-(5-(3-cyano-6-(1-methyl-1H-pyrazol-4-yl)pyrazolo[1,5-a]pyridin-4-yl)pyridin-2-yl)-3-azabicyclo[3.1.0]hexan-6-yl)methyl)carbamate] | 10 to 50 nM | ≤ 10 nM | ≤ 10 nM
4 | COc1ccc(CN[C@H]2[C@@H]3CN(c4ccc(-c5cc(-c6cnn(C)c6)cn6ncc(C#N)c56)cn4)C[C@@H]32)cn1 [Example 33, 4-(6-((1R,5S,6s)-6-(((6-methoxypyridin-3-yl)methyl)amino)-3-azabicyclo[3.1.0]hexan-3-yl)pyridin-3-yl)-6-(1-methyl-1H-pyrazol-4-yl)pyrazolo[1,5-a]pyridine-3-carbonitrile] | 10 to 50 nM | ≤ 10 nM | 10 to 50 nM
5 | CC(C)(O)COc1cc(-c2ccc(N3C[C@@H]4[C@H](C3)[C@@H]4NC(=O)c3ncccc3Cl)nc2)c2c(C#N)cnn2c1 [Example 44, 3-chloro-N-((1R,5S,6r)-3-(5-(3-cyano-6-(2-hydroxy-2-methylpropoxy)pyrazolo[1,5-a]pyridin-4-yl)pyridin-2-yl)-3-azabicyclo[3.1.0]hexan-6-yl)picolinamide] | > 100 nM | 50 to 100 nM | > 100 nM
6 | Cn1cc(-c2cc(-c3ccc(N4C[C@@H]5[C@H](C4)[C@H]5NC(=O)c4ncc(F)cc4Cl)nc3)c3c(C#N)cnn3c2)cn1 [Example 22, 3-chloro-N-((1R,5S,6s)-3-(5-(3-cyano-6-(1-methyl-1H-pyrazol-4-yl)pyrazolo[1,5-a]pyridin-4-yl)pyridin-2-yl)-3-azabicyclo[3.1.0]hexan-6-yl)-5-fluoropicolinamide] | 10 to 50 nM | ≤ 10 nM | 50 to 100 nM
7 | Cn1ccc(-c2cc(-c3ccc(N4C[C@@H]5C[C@@](C)(NC(=O)c6c(F)cccc6Cl)C[C@@H]5C4)nc3)c3c(C#N)cnn3c2)n1 [Example 93, 2-chloro-N-((3aR,5s,6aS)-2-(5-(3-cyano-6-(1-methyl-1H-pyrazol-3-yl)pyrazolo[1,5-a]pyridin-4-yl)pyridin-2-yl)-5-methyloctahydrocyclopenta[c]pyrrol-5-yl)-6-fluorobenzamide] | 10 to 50 nM | ≤ 10 nM | 10 to 50 nM
8 | Cn1cc(-c2cc(-c3cnc(N4C[C@@H]5C[C@@](C)(NC(=O)c6ncccc6F)C[C@@H]5C4)cn3)c3c(C#N)cnn3c2)cn1 [Example 142, N-((3aR,5s,6aS)-2-(5-(3-cyano-6-(1-methyl-1H-pyrazol-4-yl)pyrazolo[1,5-a]pyridin-4-yl)pyrazin-2-yl)-5-methyloctahydrocyclopenta[c]pyrrol-5-yl)-3-fluoropicolinamide] | 10 to 50 nM | ≤ 10 nM | ≤ 10 nM
